Where a SMILES comes first, the peptide text is derived from it.
Key:
[1] = molecular target: T1, VEGFR-2 (Homo sapiens, UniProt P35968); assay: Surface plasmon resonance (SPR) assay; assay type: binding; conditions: rhVEGFR-2 fixed on CM5 chip
Experimental: Binding dynamics and affinity of RLYE (SEQ ID NO: 2) to rhVEGFR-2 were evaluated with BIAcore AB (Sweden). A carboxymethylated dextran biosensor chip (CM5, BIAcore AB) was activated with 1-ethyl-3-(3-dimethylaminopropyl)carbodiimide and N-hydroxysuccinimide according to the manufacturer's manual. The rhVEGFR-2 (1 ng/μl, 10 mM Hepes, 150 mM NaCl, 3 mM EDTA, 0.005% Tween-20-containing HBS-EP buffer) was injected over the activated CM5 chip for fixation. Various concentrations of an RLYE (SEQ ID NO: 2) solution was injected over the rhVEGFR-2-fixed center chip with a flow rate of 25 μl/min, and binding and non-binding characteristics between RLYE (SEQ ID NO: 2) and the rhVEGFR-2 were analyzed. The peptide bonds were measured in arbitrary response units, and after the injection of each sample (120 sec), the HBS-EP buffer was passed over a sensor surface to monitor dissociation. The equilibrium dissociation constant (Kd) was derived to a fixing step-combined model.

[2] = test system: Src; assay: Western blot, Src phosphorylation in VEGF-A-stimulated HUVECs; assay type: cell-based, human; conditions: HUVECs stimulated with VEGF-A
Experimental: (§1) Cells were lyzed in RIPA buffer, and 50 μg of proteins were isolated by SDS-PAGE and then transferred to a PVDF membrane. The membrane was reacted with an antibody with respect to a target protein for 2 hours. The membrane was washed twice and reacted with a horseradish peroxidase-conjugated antibody, and then an amount of the target proteins was assessed with an enhanced chemiluminescence system.

[3] = test system: VEGF-A-induced angiogenesis; assay: Matrigel implantation, intravital fluorescence microscopy; assay type: in vivo, C57BL/6J mouse; conditions: mouse, RLYE 1.5 nM, VEGF 100 ng
Experimental: Formation of new blood vessels was examined by intravital fluorescence microscopy. A C57BL/6J mouse was anesthetized, and then a titanium-made imaging window was installed between the skin and an abdominal wall by surgery. 100 μl of Matrigel containing RLYE (SEQ ID NO: 2) (1.5 nM) alone or in combination with VEGF (100 ng) was injected into an inner space between the skin and abdominal walls of the window. Four days later, 50 μl of dextran (MW 250 kDa) labeled with 25 mg/ml of FITC was injected into the caudal vein, and then formation of new blood vessels was observed under a Zeiss Axiovert 200M microscope (Carl Zeiss). A vascular length density of the FITC-labeled dextran-perfuse blood vessels per observation area (mm/mm2) was calculated.

[4] = test system: aortic ring; assay: Aortic ring sprouting assay (ex vivo); design: species or system Sprague-Dawley rat; conditions: RLYE 0.3 nM, VEGF 20 ng/ml
Experimental: An aortic ring sprouting assay was performed by a method modified based on previous research. A 1-mm-thick aortic ring prepared from a Sprague-Dawley rat (7-week-old male) was placed in a 96-well plate coated with 120 μl of Matrigel, sealed with 50 μl of Matrigel, and incubated with RLYE (SEQ ID NO: 2) (0.3 nM) or VEGF (20 ng/ml) in a total of 200 μl of a serum-free medium. Blood vessels newly formed at day 6 were fixed, microvascular formation was observed under a phase-contrast microscope, and angiogenesis was quantified with Image Jsoftware available at NIH website, rsb.info.nih.gov/ij.

[5] = molecular target: T1, VEGFR-2; assay: Western blot, VEGFR-2 phosphorylation in VEGF-A-treated HUVECs; assay type: cell-based; design: endogenous in cells; host or cells: HUVEC
Experimental: as §1

[6] = test system: zebrafish; assay: Zebrafish angiogenesis assay; assay type: in vivo; conditions: zebrafish embryo
Experimental: An adult zebrafish and an embryo were grown and maintained in a standard laboratory environment, and a zebrafish experiment was conducted according to the protocols approved by the animal ethics committee of Chungnam National University. To analyze angiogenesis, at 48 hours post fertilization (hpf), the embryo was anesthetized with tricaine (MS-222, 0.02%, embryo buffer), a peptide was administered, and FITC-dextran (2,000 kDa, Sigma) was further injected. A blood vessel image was obtained with a Leica DM5000B system at 72 hpf. As a probe for whole mount in situ hybridization, digoxigenin (DIG)-labeled RNA prepared by a cad5 (NM_001003983) gene was used. Meanwhile, a peptide was injected into the 18-hpf embryo collected at 25 hpf, fixed with 4% paraformaldehyde, washed with PBS (in 0.1% Tween20), and hybridized with DIG-labeled riboprobes (hybridization buffer). Subsequently, the resulting product was reacted with an alkaline phosphatase (AP)-conjugated anti-DIG antibody. Following reaction with an AP staining solution, a staining status was observed and visualized under a microscope (Leica, MZ-16).

[7] = test system: HCT116 human colorectal tumor cells; assay: Human colorectal tumor (HCT116) xenograft model; assay type: in vivo, nude mouse
Experimental: 100 μl each of 2×10^6 B16F1 mouse melanoma cells and 1×10^7 HCT116 human colorectal tumor cells were subcutaneously injected into the left side of a C57BL/6J mouse and a nude mouse. After a tumor volume reached at least 50 to 70 mm3 (taking about 7 days), saline or RLYE (SEQ ID NO: 2) (0.5 or 1.0 mg/kg) was peritoneally injected daily into the mice. A tumor size was two-dimensionally measured with calipers. A tumor volume (mm3) was calculated by a formula of […]. Following homogenization of tumor tissue with PBS and centrifugation (at 12,000×g for 5 min), a hemoglobin-containing supernatant was extracted to be used in analysis with Drabkin's reagent (Sigma). A hemoglobin level was measured by a cyanmethemoglobin method, and the amount of hemoglobin per gram of the tumor was calculated.
Tumor tissue was fixed in 10% formalin, and inserted into paraffin. A slide was prepared from a tissue section, embedded in xylene to remove the paraffin, and rehydrated with 100%, 95%, 80% and 70% ethanol (EtOH) in s stepwise manner. Afterward, the slide was washed with deionized water multiple times at room temperature. To inhibit an intracellular peroxidase activity, the section was reacted in 0.3% hydrogen peroxide-containing methanol for 15 minutes, washed with PBS three times, reacted in 3% goat serum-containing PBS at room temperature for 2 hours, and reacted with a PECAM-1 antibody overnight at 4° C. The tissue section slide was washed with PBS three times, and reacted with a TRITC-conjugated secondary antibody for 1 hour. In addition, the tumor tissue section was also reacted with FITC-isolectin B4 ([…]; Vector Laboratories) for 1 hour. The tissue section was washed with PBS three times, and treated with a Permount solution to make a slide, followed by observation of tumor blood vessels under a fluorescence microscope.

[8] = 0.5 or 1.0 mg/kg per day peritoneally

T1 sequence (P35968 20-1356): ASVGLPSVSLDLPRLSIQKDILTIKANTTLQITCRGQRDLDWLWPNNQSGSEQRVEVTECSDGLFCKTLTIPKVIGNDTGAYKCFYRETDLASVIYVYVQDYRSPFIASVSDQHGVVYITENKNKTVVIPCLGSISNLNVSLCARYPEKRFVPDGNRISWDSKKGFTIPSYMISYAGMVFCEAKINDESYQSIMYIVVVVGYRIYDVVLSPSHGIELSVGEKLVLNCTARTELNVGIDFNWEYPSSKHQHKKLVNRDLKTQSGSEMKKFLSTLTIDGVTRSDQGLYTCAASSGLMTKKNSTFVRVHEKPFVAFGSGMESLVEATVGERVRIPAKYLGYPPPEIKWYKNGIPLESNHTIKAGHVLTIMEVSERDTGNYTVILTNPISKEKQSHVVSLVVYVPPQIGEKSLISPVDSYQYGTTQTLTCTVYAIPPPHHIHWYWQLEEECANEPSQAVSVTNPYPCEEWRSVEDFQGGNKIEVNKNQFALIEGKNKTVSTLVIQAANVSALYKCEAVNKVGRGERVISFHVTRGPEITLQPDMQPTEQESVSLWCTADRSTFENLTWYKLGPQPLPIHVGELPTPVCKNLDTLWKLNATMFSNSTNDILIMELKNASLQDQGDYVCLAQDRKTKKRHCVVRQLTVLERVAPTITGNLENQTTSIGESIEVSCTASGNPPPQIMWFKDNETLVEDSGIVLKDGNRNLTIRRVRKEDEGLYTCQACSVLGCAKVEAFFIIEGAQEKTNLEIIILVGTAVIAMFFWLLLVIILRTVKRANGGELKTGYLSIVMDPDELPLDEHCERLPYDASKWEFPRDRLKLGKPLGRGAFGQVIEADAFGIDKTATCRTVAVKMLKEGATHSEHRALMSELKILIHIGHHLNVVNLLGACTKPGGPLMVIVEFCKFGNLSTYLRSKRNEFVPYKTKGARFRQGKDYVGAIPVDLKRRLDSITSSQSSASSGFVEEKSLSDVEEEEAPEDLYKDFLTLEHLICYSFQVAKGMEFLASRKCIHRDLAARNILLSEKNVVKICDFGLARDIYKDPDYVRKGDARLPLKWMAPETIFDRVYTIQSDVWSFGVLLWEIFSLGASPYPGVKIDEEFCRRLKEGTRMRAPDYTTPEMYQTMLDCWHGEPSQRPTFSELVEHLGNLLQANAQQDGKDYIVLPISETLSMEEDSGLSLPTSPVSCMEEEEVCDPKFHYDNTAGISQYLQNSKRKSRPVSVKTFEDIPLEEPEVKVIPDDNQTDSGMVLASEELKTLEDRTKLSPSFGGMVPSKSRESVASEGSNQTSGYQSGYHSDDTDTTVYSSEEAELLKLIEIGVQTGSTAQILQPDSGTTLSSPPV

## CC(C)C[C@H](NC(=O)[C@@H](N)CCCNC(=N)N)C(=O)N[C@@H](Cc1ccc(O)cc1)C(=O)N[C@@H](CCC(=O)O)C(=O)O [RLYE] (H-RLYE-OH; N-terminus and C-terminus assumed)
[1]
  binding to rhVEGFR-2 (SPR): effectively binds
[2]
  phosphorylation of Src: inhibited
[3]
  VEGF-A-induced angiogenesis in Matrigel implant: effectively inhibited
[4]
  VEGF-A-induced angiogenesis at the edge of the aortic ring: significantly inhibited
[5]
  phosphorylation of VEGFR-2: inhibits
[6]
  formation of intersegmental vessels (ISV): obviously inhibited
  formation of subintestinal vessels (SIV): considerably inhibited
[7]
  invasion of HUVECs into tumor tissue (isolectin B4 / PECAM-1 immunostaining): decreased depending on the amount of treated RLYE
[7]; [8]
  tumor growth: concentration-dependently inhibited
  tumor size: significantly reduced
[7]; compared with a control
  decrease in hemoglobin content in tumor tissue: 41%
